Like-named read-outs stand apart in the source and are kept apart here.
Columns and labels:
Bacillus subtilis = test system: Bacillus subtilis; set-up: method as in earlier work; conditions: cited from earlier work
[1] = test system: TNF-α production in LPS + IFN-γ activated RAW 264.7 macrophages; assay: Inhibition of LPS + IFN-γ induced TNF-α production (ELISA); type: cell-based; conditions: for IC50: Mus musculus, read-out: TNF-α Inhibition (IC50 in µM) (n = 3)
Description: (§1) RAW 264.7 macrophages were grown in 175 cm^2 flasks on DMEM containing 5% foetal bovine serum (FBS) that was supplemented with penicillin (100 μg/mL), streptomycin (100 μg/mL) and L-glutamine (2 mM). The cell line was maintained in 5% CO2 at 37 °C, with media being replaced every 3–4 days. Once cells had grown to confluence in the culture flask, they were removed using a rubber policeman, as opposed to using trypsin, which can remove membrane-bound receptors. The cell suspension was concentrated by centrifugation for 3 min at 900 rpm and re-suspended in a small volume of fresh DMEM (with 1% antibiotics and 5% FBS); cell densities were estimated using a Neubauer counting chamber. The cell concentration was adjusted with DMEM (with 1% antibiotics and 5% FBS) to obtain 60,000 cells/100 μL cell suspension. An aliquot of 100 μL of this cell suspension was dispensed into the wells of 96-well plates. Plates were incubated at 37 °C, 5% CO2 for 18 h before the activation experiments were carried out.
(§2) For assays, 90 μL of each concentration of compounds (8 concentrations made by serial dilution from 0 µg/mL to 36 µg/mL compound in DMEM) were added an hour prior to addition of 10 µL of activator. A combination of 10 μg·mL^−1 LPS and 10 U·mL^−1 (1 unit = 0.1 ng/mL) IFN-γ, were used for activation. After activation, the cells were incubated for 24 h at 37 °C and then NO, TNF-α and cell viability was determined. Unactivated cells (exposed to media alone) were used as negative control and activated cells as positive control.
The diluted supernatants were used for determination of TNF-α using a commercial sandwich ELISA (Peprotech) according to the manufacturer’s protocol. In brief, the capture antibody was used at a concentration of 1.5 μg·mL^−1 in PBS (1.9 mM NaH2PO4, 8.1 mM Na2HPO4, 154 mM NaCl) (pH 7.4). Serial dilutions of TNF-α standard from 0 to 10,000 pg·mL^−1 in diluent (0.05% Tween-20, 0.1% BSA in PBS) were used as internal standard. TNF-α was detected with a biotinylated second antibody and an Avidin peroxidase conjugate with TMB as detection reagent. The colour development was monitored at 655 nm, taking readings every 5 min. After approximately 30 min the reaction was stopped using 0.5 M sulphuric acid and the absorbance was measured at 450 nm using a POLARstar Omega microplate reader (BMG Labtech, Mornington, Australia), expressed as a percentage in control cells after conversion of the concentrations, using a standard curve constructed with defined concentrations of TNF-α. Curve fitting of this standard curve and extrapolation of experimental data were performed using non-linear regression analysis.
(§3) Data calculations were performed using MS-Excel 2010 software. IC50 values were obtained by using the sigmoidal dose–response function in GraphPad Prism. The results were expressed as mean ± standard deviation (SD).

[2] = Cell viability by the Alamar Blue assay (cytotoxicity); type: cell-based; conditions: mouse, RAW 264.7, 24 h, mean ± SD, read-out: Cytotoxicity (LC50 in μM) (n = 8)
Description: as §1, §2
One hundred microlitres of Alamar Blue solution (10% Alamar Blue (Resazurin) in DMEM media) was added to each well, incubated at 37 °C for 2 h. After incubation, fluorescence intensity was measured with the microplate reader (excitation at 530 nm and emission at 590 nm) and results were expressed as a percentage of the intensity of that in control cells, after background fluorescence was subtracted.
as §3

[3] = test system: NO production in LPS + IFN-γ activated RAW 264.7 macrophages; assay: Inhibition of LPS + IFN-γ induced nitric oxide production (Griess assay); type: cell-based; conditions: for IC50: Mus musculus, read-out: NO Inhibition (IC50 in μM) (n = 8); for anti-inflammatory activity (in words): NO and TNF-α
Description: as §1, §2
Nitric oxide was determined by Griess reagent quantification of nitrite. Griess reagent was freshly made up of equal volumes of 1% sulfanilamide and 0.1% napthyethylene-diamine in 5% HCl. From each well, 50 µL of supernatant was transferred to a fresh 96-well plate and mixed with 50 µL of Griess reagent and measured at 540 nm in a POLARstar Omega microplate reader (BMG Labtech, Mornington, Australia). The concentration of nitrite was calculated using a standard curve with […] (0–500 μM), and linear regression analysis.
as §3

SCC2095 OSCC cells = test system: SCC2095 OSCC cells; set-up: method as in doi:10.1016/j.jff.2015.07.017; conditions: read-out: suppression of proliferation IC50; cited from earlier work
[4] = test system: 12-O-tetradecanoylphorbol 13 acetate (TPA)-induced topical inflammation in mice ears; set-up: method as in PMID 16697209; conditions: cited from earlier work
SCC4 OSCC cells = test system: SCC4 OSCC cells; set-up: method as in doi:10.1016/j.jff.2015.07.017; conditions: read-out: suppression of proliferation IC50; cited from earlier work
[5] = test system: NO production in LPS-stimulated RAW 264.7 cells; set-up: method as in PMID 19557361; conditions: cited from earlier work
[6] = RAW264.7, RAW 264.7, LPS + IFN-γ, 24 h, ELISA, mean ± SD
[7] = RAW 264.7 macrophages activated with LPS and IFN-γ
[8] = RAW264.7, RAW 264.7, LPS + IFN-γ, 24 h, Griess assay, mean ± SD

| Compound | IC50 ([1]; RAW264.7, 24 h) | CC50 at 24 h [2] | IC50 ([3]; RAW264.7, 24 h) | IC50 [1, 6] | CC50 at 24 h [2, 7] | IC50 [3, 8] | other results |
| --- | --- | --- | --- | --- | --- | --- | --- |
| C=C(C)C1CCC2(C(=O)O)CCC3(C)C(CCC4C5(C)CC(=O)C(O)C(C)(C)C5CCC43C)C12 (stereo not shown) [2-ketobetulinic acid, reference compound] | – | – | – | – | – | – | antibacterial activity (Bacillus subtilis): showed antibacterial activity |
| C=C(C)[C@@H]1CC[C@]2(C(=O)O)CC[C@]3(C)[C@H](CC[C@@H]4[C@@]5(C)[C@@H](C(=O)O)[C@H](O)C(C)(C)[C@@H]5CC[C@]43C)C12 (stereo partly shown) [Compound 1, emmolic acid] | > 36 µM | > 36 µM | > 36 µM | – | – | – | anti-inflammatory activity (in words) ([3]; RAW 264.7, LPS + IFN-γ): inactive |
| C=C(C)[C@@H]1CC[C@]2(C(=O)O)CC[C@]3(C)[C@H](CC[C@@H]4[C@@]5(C)C[C@@H](O)[C@H](O)C(C)(C)[C@@H]5CC[C@]43C)[C@@H]12 [Compound 2, alphitolic acid] | 22.7 ± 1.1 µM | 18.6 ± 0.8 µM | 17.6 ± 0.7 µM | – | – | – | IC50 (SCC2095 OSCC cells): 15 µM; inhibition of TPA-induced topical inflammation [4]: inhibit; IC50 (SCC4 OSCC cells): 12 µM |
| C=C(C)[C@@H]1CC[C@]2(C(=O)O)CC[C@]3(C)[C@H](CC[C@@H]4[C@@]5(C)C[C@@H](OC(=O)/C=C/c6ccc(O)cc6)[C@H](O)C(C)(C)[C@@H]5CC[C@]43C)[C@@H]12 [Compound 3, trans-coumaroyl alphitolic acid] | 10.9 ± 2.3 µM | 4.8 ± 0.9 µM | 1.7 ± 0.3 µM | – | – | – | increase in potency of NO inhibition compared with compound 2 ([3]; RAW 264.7, LPS + IFN-γ): ten-fold |
| C=C(C)[C@@H]1CC[C@]2(C(=O)O)CC[C@]3(C)[C@H](CC[C@@H]4[C@@]5(C)C[C@@H](OC(=O)/C=C\c6ccc(O)cc6)[C@H](O)C(C)(C)[C@@H]5CC[C@]43C)[C@@H]12 [Compound 4, cis-coumaroyl alphitolic acid] | 5.6 ± 0.4 µM | 8 ± 0.3 µM | 3.5 ± 0.5 µM | – | – | – | inhibition of TNF-α (in words) ([1]; RAW 264.7, LPS + IFN-γ): strong inhibition |
| C=C(C)[C@@H]1CC[C@]2(C(=O)O)CC[C@]3(C)[C@H](CC[C@@H]4[C@@]5(C)CC[C@H](O)C(C)(C)[C@@H]5CC[C@]43C)[C@@H]12 [Compound 5, betulinic acid] | – | – | – | 23.5 ± 3.7 µM | 29.1 ± 4.4 µM | 8.3 ± 1 µM | antibacterial activity (Bacillus subtilis): showed antibacterial activity |
| C=C(C)[C@@H]1CC[C@]2(C(=O)O)CC[C@]3(C)[C@H](CC[C@@H]4[C@@]5(C)[C@@H](C(=O)O)[C@H](OC(C)=O)C(C)(C)[C@@H]5CC[C@]43C)C12 (stereo partly shown) [Compound 6, emmolic acid acetate] | – | 13.1 ± 2.5 µM | – | > 36 µM | – | 14.7 ± 0.6 µM | anti-inflammatory activity (in words) ([3]; RAW 264.7, LPS + IFN-γ): moderate anti-inflammatory activity |
| O=C(O)Cc1ccccc1Nc1c(Cl)cccc1Cl [Diclofenac, diclofenac sodium, reference compound] | – | – | – | > 333 µM | > 333 µM | 217 ± 43 µM | – |
| CC(C)Cc1ccc(C(C)C(=O)O)cc1 (stereo not shown) [Ibuprofen, ibuprofen, reference compound] | – | – | – | 723 ± 261 µM | > 1500 µM | 1160 ± 133 µM | – |
| C=C(C)C1CCC2(C(=O)O)CCC3(C)C(CCC4C5(C)CCC(OC(=O)C=Cc6ccc(O)c(O)c6)C(C)(C)C5CCC43C)C12 (stereo not shown) [betulinic acid 3-O-caffeate] | – | – | – | – | – | – | NO inhibition (in words) [5]: most active compound |

Reference: paper PMC6273140, “Anti-Inflammatory Chemical Profiling of the Australian Rainforest Tree Alphitonia petriei (Rhamnaceae)” (Molecules, 2016)
